Laboratory results as given in ChEMBL document CHEMBL3797052 (Eur J Med Chem, 2016).
pIC50: −log10 of the molar value.

Tests used:
[1] = Antiproliferative activity against human HCT116 cells assessed as growth inhibition after 48 hrs by sulforhodamine B assay; type: functional; details: HCT-116, 48 h
Malme-3M = experiment: Antiproliferative activity against human MALME-3M cells assessed as cell growth at 10^-7 M after 48 hrs by sulforhodamine B assay; type: functional; details: read-out: Activity
[2] = Antiproliferative activity against human IGROV1 cells assessed as growth inhibition after 48 hrs by sulforhodamine B assay; type: functional; details: IGROV-1, 48 h; for CC50: read-out: LC50 (the source's name)
SN12C [3] = experiment: Antiproliferative activity against human SN12C cells assessed as cell growth at 10^-7 M after 48 hrs by sulforhodamine B assay; type: functional; details: read-out: Activity
[4] = Antiproliferative activity against human NCI-ADR-RES cells assessed as cell growth at 10^-8 M after 48 hrs by sulforhodamine B assay; type: functional; details: read-out: Activity
SK-MEL-5 = experiment: Antiproliferative activity against human SK-MEL-5 cells assessed as cell growth at 10^-4 M after 48 hrs by sulforhodamine B assay; type: functional; details: SK-MEL-5, 48 h, read-out: Activity
MDA-MB-231 [5] = experiment: Antiproliferative activity against human MDA-MB-231 cells assessed as cell growth at 10^-4 M after 48 hrs by sulforhodamine B assay; type: functional; details: MDA-MB-231, 48 h, read-out: Activity
[6] = Antiproliferative activity against human HCT15 cells assessed as cell growth at 10^-7 M after 48 hrs by sulforhodamine B assay; type: functional; details: HCT-15, 48 h, read-out: Activity
M14 = experiment: Antiproliferative activity against human M14 cells assessed as cell growth at 10^-7 M after 48 hrs by sulforhodamine B assay; type: functional; details: M14, 48 h, read-out: Activity
786-0 [7] = experiment: Antiproliferative activity against human 786-0 cells assessed as cell growth at 10^-6 M after 48 hrs by sulforhodamine B assay; type: functional; details: 786-0, 48 h, read-out: Activity
[8] = Antiproliferative activity against human OVCAR8 cells assessed as cell growth at 10^-6 M after 48 hrs by sulforhodamine B assay; type: functional; details: OVCAR-8, 48 h, read-out: Activity
MDA-MB-231 [9] = experiment: Antiproliferative activity against human MDA-MB-231 cells assessed as cell growth at 10^-6 M after 48 hrs by sulforhodamine B assay; type: functional; details: MDA-MB-231, 48 h, read-out: Activity
[10] = biological target: Serine/threonine-protein kinase B-raf (Homo sapiens, UniProt P15056, V600E); experiment: Inhibition of BRAF V600E mutant (unknown origin) measured after 40 mins by scintillation counting
Chain of Serine/threonine-protein kinase B-raf (P15056 2-766 V600E limits assumed): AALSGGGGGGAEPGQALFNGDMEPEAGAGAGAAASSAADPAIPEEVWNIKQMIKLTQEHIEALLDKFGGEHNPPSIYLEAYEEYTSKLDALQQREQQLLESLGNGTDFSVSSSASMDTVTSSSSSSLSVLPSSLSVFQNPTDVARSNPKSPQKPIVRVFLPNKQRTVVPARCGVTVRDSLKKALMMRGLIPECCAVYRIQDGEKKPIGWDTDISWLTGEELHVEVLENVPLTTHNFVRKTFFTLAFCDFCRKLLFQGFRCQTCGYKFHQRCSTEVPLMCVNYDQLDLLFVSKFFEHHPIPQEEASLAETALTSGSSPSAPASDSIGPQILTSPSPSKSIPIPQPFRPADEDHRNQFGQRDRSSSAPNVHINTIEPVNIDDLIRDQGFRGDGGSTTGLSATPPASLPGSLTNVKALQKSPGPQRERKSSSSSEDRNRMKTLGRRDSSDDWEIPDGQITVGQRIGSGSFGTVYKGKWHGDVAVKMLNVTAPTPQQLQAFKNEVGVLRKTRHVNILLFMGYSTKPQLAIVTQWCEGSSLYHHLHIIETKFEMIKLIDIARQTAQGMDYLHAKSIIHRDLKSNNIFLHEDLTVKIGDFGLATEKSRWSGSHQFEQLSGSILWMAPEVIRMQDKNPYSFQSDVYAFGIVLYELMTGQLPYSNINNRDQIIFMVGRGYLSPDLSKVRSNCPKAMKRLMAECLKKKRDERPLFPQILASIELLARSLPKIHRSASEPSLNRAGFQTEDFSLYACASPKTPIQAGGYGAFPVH

[11] = Antiproliferative activity against human SF295 cells assessed as cell growth at 10^-6 M after 48 hrs by sulforhodamine B assay; type: functional; details: SF-295, 48 h, read-out: Activity
[12] = Antiproliferative activity against human MOLT4 cells assessed as growth inhibition after 48 hrs by sulforhodamine B assay; type: functional; details: MOLT-4, 48 h
SN12C [13] = experiment: Antiproliferative activity against human SN12C cells assessed as growth inhibition after 48 hrs by sulforhodamine B assay; type: functional; details: for CC50: read-out: LC50 (the source's name)
A549 = experiment: Antiproliferative activity against human A549/ATCC cells assessed as cell growth at 10^-4 M after 48 hrs by sulforhodamine B assay; type: functional; details: A549, 48 h, read-out: Activity
U-251 = experiment: Antiproliferative activity against human U251 cells assessed as cell growth at 10^-4 M after 48 hrs by sulforhodamine B assay; type: functional; details: U-251, 48 h, read-out: Activity
MDA-MB-468 = experiment: Antiproliferative activity against human MDA-MB-468 cells assessed as cell growth at […] after 48 hrs by sulforhodamine B assay; type: functional; details: MDA-MB-468, 48 h, read-out: Activity
T47D = experiment: Antiproliferative activity against human T47D cells assessed as cell growth at 10^-7 M after 48 hrs by sulforhodamine B assay; type: functional; details: read-out: Activity
[14] = Antiproliferative activity against human SNB75 cells assessed as cell growth at 10^-8 M after 48 hrs by sulforhodamine B assay; type: functional; details: SNB-75, 48 h, read-out: Activity
NCI-H23 = experiment: Antiproliferative activity against human NCI-H23 cells assessed as cell growth at 10^-8 M after 48 hrs by sulforhodamine B assay; type: functional; details: NCI-H23, 48 h, read-out: Activity
MDA-MB-435 = experiment: Antiproliferative activity against human MDA-MB-435 cells assessed as cell growth at 10^-6 M after 48 hrs by sulforhodamine B assay; type: functional; details: MDA-MB-435, 48 h, read-out: Activity
ACHN = experiment: Antiproliferative activity against human ACHN cells assessed as cell growth at 10^-8 M after 48 hrs by sulforhodamine B assay; type: functional; details: read-out: Activity
CYP3A4 = CYP3A4 (Homo sapiens, UniProt P08684); experiment: Inhibition of recombinant human CYP3A4 assessed as remaining enzyme activity using CYP3A4 blue as substrate at 10 uM after 5 mins in presence of NADP by fluorescence plate reader analysis; type: ADME; details: recombinant human CYP3A4, probe CYP3A4 blue, read-out: Activity
Chain of CYP3A4 (P08684 whole entry): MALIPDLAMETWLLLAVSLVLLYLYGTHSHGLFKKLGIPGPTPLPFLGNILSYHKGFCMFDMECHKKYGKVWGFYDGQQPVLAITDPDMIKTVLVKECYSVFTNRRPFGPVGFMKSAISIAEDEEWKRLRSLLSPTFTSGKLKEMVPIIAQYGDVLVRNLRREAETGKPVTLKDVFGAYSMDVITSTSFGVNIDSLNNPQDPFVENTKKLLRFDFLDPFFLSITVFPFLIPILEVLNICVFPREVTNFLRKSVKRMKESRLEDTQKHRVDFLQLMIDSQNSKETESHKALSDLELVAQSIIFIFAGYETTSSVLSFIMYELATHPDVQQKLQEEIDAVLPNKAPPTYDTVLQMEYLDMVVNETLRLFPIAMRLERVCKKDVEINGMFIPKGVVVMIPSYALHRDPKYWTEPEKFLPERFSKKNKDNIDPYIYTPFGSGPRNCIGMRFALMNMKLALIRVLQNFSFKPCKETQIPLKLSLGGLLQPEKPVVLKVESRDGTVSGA

[15] = Antiproliferative activity against human HCC2998 cells assessed as cell growth at 10^-8 M after 48 hrs by sulforhodamine B assay; type: functional; details: HCC 2998, 48 h, read-out: Activity
K562 = experiment: Antiproliferative activity against human K562 cells assessed as cell growth at 10^-8 M after 48 hrs by sulforhodamine B assay; type: functional; details: K562, 48 h, read-out: Activity
[16] = Antiproliferative activity against human BT549 cells assessed as growth inhibition after 48 hrs by sulforhodamine B assay; type: functional; details: BT-549, 48 h; for CC50: read-out: LC50 (the source's name)
[17] = Antiproliferative activity against human OVCAR4 cells assessed as cell growth at 10^-4 M after 48 hrs by sulforhodamine B assay; type: functional; details: OVCAR-4, 48 h, read-out: Activity
[18] = Antiproliferative activity against human TK10 cells assessed as cell growth at 10^-4 M after 48 hrs by sulforhodamine B assay; type: functional; details: TK-10, 48 h, read-out: Activity
[19] = Antiproliferative activity against human HOP62 cells assessed as cell growth at 10^-7 M after 48 hrs by sulforhodamine B assay; type: functional; details: HOP-62, 48 h, read-out: Activity
[20] = Antiproliferative activity against human DU145 cells assessed as cell growth at 10^-8 M after 48 hrs by sulforhodamine B assay; type: functional; details: DU-145, 48 h, read-out: Activity
NCI-H460 = experiment: Antiproliferative activity against human NCI-H460 cells assessed as cell growth at 10^-7 M after 48 hrs by sulforhodamine B assay; type: functional; details: NCI-H460, 48 h, read-out: Activity
786-0 [21] = experiment: Antiproliferative activity against human 786-0 cells assessed as growth inhibition after 48 hrs by sulforhodamine B assay; type: functional; details: 786-0, 48 h
[22] = Antiproliferative activity against human RXF393 cells assessed as growth inhibition after 48 hrs by sulforhodamine B assay; type: functional; details: RXF 393, 48 h; for CC50: read-out: LC50 (the source's name)

## CNC(=O)c1cc(Oc2ccc3nc(NC(=O)Nc4ccc(Cl)c(C(F)(F)F)c4)sc3c2)ccn1
[1]
  GI50: 1.89 µM
  LC50 (concentration killing 50% of the starting cells): > 100 µM
  TGI: 5.39 µM
Malme-3M
  growth at 0.1 µM: 98%
[2]
  GI50: 2.02 µM
  TGI: 5.12 µM
  CC50: > 100 µM
SN12C [3]
  growth at 0.1 µM: 93%
[4]
  growth at 0.01 µM: 110%
SK-MEL-5
  growth at 100 µM: 57%
MDA-MB-231 [5]
  growth at 100 µM: -53%
[6]
  growth at 0.1 µM: 96%
M14
  growth at 0.1 µM: 92%
786-0 [7]
  growth at 1 µM: 95%
[8]
  growth at 1 µM: 103%
MDA-MB-231 [9]
  growth at 1 µM: 66%
[10]
  pIC50: 6.88
[11]
  growth at 1 µM: 90%
[12]
  LC50: > 100 µM
  TGI: > 100 µM
SN12C [13]
  GI50: 2.44 µM
  TGI: > 100 µM
  CC50: > 100 µM
A549
  growth at 100 µM: 9%
U-251
  growth at 100 µM: -34%
MDA-MB-468
  growth at 0.01 µM: 86%
T47D
  growth at 0.1 µM: 92%
[14]
  growth at 0.01 µM: 79%
NCI-H23
  growth at 0.01 µM: 100%
MDA-MB-435
  growth at 1 µM: 83%
ACHN
  growth at 0.01 µM: 97%
CYP3A4
  activity at 5 min, 10 µM: 105%
[15]
  growth at 0.01 µM: 107%
K562
  growth at 0.01 µM: 107%
[16]
  GI50: 2.64 µM
  TGI: 9.73 µM
  CC50: > 100 µM
[17]
  growth at 100 µM: -15%
[18]
  growth at 100 µM: -62%
[19]
  growth at 0.1 µM: 95%
[20]
  growth at 0.01 µM: 109%
NCI-H460
  growth at 0.1 µM: 103%
786-0 [21]
  GI50: 1.79 µM
  LC50: 6.48 µM
  TGI: 3.4 µM
[22]
  GI50: 1.93 µM
  TGI: 4.57 µM
  CC50: 13.9 µM

## CNC(=O)c1cc(Oc2ccc3nc(NC(=O)Nc4ccc(Cl)c(Cl)c4)sc3c2)ccn1
[1]
  GI50: 1.88 µM
  LC50 (concentration killing 50% of the starting cells): 11.5 µM
  TGI: 4.35 µM
Malme-3M
  growth at 0.1 µM: 82%
[2]
  GI50: 2.55 µM
  TGI: 6.75 µM
  CC50: > 100 µM
SN12C [3]
  growth at 0.1 µM: 107%
[4]
  growth at 0.01 µM: 97%
SK-MEL-5
  growth at 100 µM: -23%
MDA-MB-231 [5]
  growth at 100 µM: -44%
[6]
  growth at 0.1 µM: 97%
M14
  growth at 0.1 µM: 96%
786-0 [7]
  growth at 1 µM: 100%
[8]
  growth at 1 µM: 103%
MDA-MB-231 [9]
  growth at 1 µM: 85%
[10]
  pIC50: 7.02
[11]
  growth at 1 µM: 79%
[12]
  GI50: > 100 µM
  LC50: > 100 µM
  TGI: > 100 µM
SN12C [13]
  GI50: 3.92 µM
  TGI: > 100 µM
  CC50: > 100 µM
A549
  growth at 100 µM: -41%
U-251
  growth at 100 µM: -90%
MDA-MB-468
  growth at 0.01 µM: 94%
T47D
  growth at 0.1 µM: 106%
[14]
  growth at 0.01 µM: 76%
NCI-H23
  growth at 0.01 µM: 95%
MDA-MB-435
  growth at 1 µM: 93%
ACHN
  growth at 0.01 µM: 92%
CYP3A4
  activity at 5 min, 10 µM: 104%
[15]
  growth at 0.01 µM: 98%
K562
  growth at 0.01 µM: 99%
[16]
  GI50: 4.88 µM
  TGI: > 100 µM
  CC50: > 100 µM
[17]
  growth at 100 µM: -68%
[18]
  growth at 100 µM: -14%
[19]
  growth at 0.1 µM: 112%
[20]
  growth at 0.01 µM: 102%
NCI-H460
  growth at 0.1 µM: 109%
786-0 [21]
  GI50: 2.26 µM
  LC50: 21.5 µM
  TGI: 5.11 µM
[22]
  GI50: 1.84 µM
  TGI: 3.65 µM
  CC50: 7.24 µM
